{"source": "paper PMC12669049", "about": "“Energy-transfer photoproximity labelling in live cells using an organic cofactor” (Nature Chemistry, 2025)", "key": {"[1]": {"experiment": "Phenyl azide S3 conversion via HPLC", "method": "3.2 Photocatalyst Screening\n3.2.1 Phenyl azide conversion via HPLC\nTo an 8 mL crimp neck vial with magnetic stirrer bar was added a solution of phenyl azide S3 (1 mM, 10 µL of 100 mM DMSO stock) and photocatalyst (PC, 0.1 mM, 10 µL of 10 mM DMSO stock) in PBS pH = 7.4 (1 mL). The vial was sealed and sparged with Ar for 10 min before being irradiated with a 450 nm light (40W, EvoluChem, PhotoRedOx Box) for 15 min. […]\ntrifluoromethylbenzoic acid as the internal standard (1 mM) and analysed using analytical HPLC (see Section 2.5 for further details). Conversions were calculated using standard calibration curve of phenyl azide S3 vs. internal standard and are represented as the average of duplicate runs.\nCalibration curve of phenyl azide S3 vs. internal standard\n(also on this page, place not known: Normalised Intensity (Substrate/Standard))"}, "[2]": {"experiment": "Stationary and time-resolved absorption and emission spectroscopy (photophysics)", "format": "physicochemical", "description": "(§1) Details of the stationary and time-resolved absorption and emission spectroscopy procedures used for the mechanistic studies are given in Supplementary Section 3.3."}, "[3]": {"system": "HeLa cells", "experiment": "Cell viability assay (WST-1)", "format": "cell-based", "details": "WST-1, 24 h incubation, Extended Data Fig. 5a"}, "[4]": {"details": "cited from earlier work"}, "[5]": {"experiment": "Photocatalytic conversion of diazirine, analysis via 19F NMR", "method": "To an 8 ml crimp neck vial with a magnetic stirrer bar was added a solution of diazirine (100 µM, 10 µl of 10 mM DMSO stock) and photocatalyst (10 µM, 10 µl of 1 mM DMSO stock) in PBS (pH = 7.4, 1 ml). The vial was sealed and sparged with Ar for 10 min before being irradiated with 450 nm light (30 W LED; EvoluChem, PhotoRedOx Box) for 15 min. The solution was then spiked with p-(trifluoromethyl)benzoic acid as the internal standard (100 µM, chemical shift (δ) = −61.35 ppm) and analysed via ^19F NMR to determine the conversion of diazirine (δ = −64.23 ppm) to the carbinol product (δ = −76.64 ppm)[17]. Conversions are represented as the average of duplicate runs."}, "[6]": {"experiment": "Transient absorption of 4 with substrates (triplet energy / electron transfer)", "format": "physicochemical", "details": "GSH 50 mM", "description": "as §1"}, "[7]": {"system": "reporter HeLa cells expressing cytoplasmic HaloTag–SNAP-tag fusion protein", "experiment": "Modified chloroalkane penetration assay (CAPA), HeLa", "format": "in vitro ADME", "details": "modified pulse-chase CAPA, 1 h pulse in FluoroBrite DMEM, chase CA–TMR-d12 15 min, BG–SiR-d12 1 µM for normalisation, flow cytometry, Fig. 4f, three biological replicates (mean ± SD)", "method": "(§2) CA–TMR-d12 and BG–SiR-d12 were prepared as described previously. HeLa or HEK293T cells were seeded onto 10 cm cell culture dishes and allowed to attach for 24 h under standard cell culture maintenance conditions. The culture medium was replaced with fresh DMEM (5 ml, high glucose) with 10% FCS without antibiotics followed by plasmid (pcDNA5-HaloTag-Pro30-SNAP-tag) transfection using Lipofectamine 3000 (Thermo) according to Supplementary Section 2.8. After 24 h, the transfected cells were trypsinized, seeded into 24-well cell culture plates (1 × 10^5 cells per well) and incubated again for 24 h. […] Cell pellets were resuspended in PBS (400 µl) and analysed via flow cytometry (FACS Fortessa). The mean fluorescence intensity (MFI) values in the TMR and Cy5 (SiR) channels of live cells were determined. […] Equation (2) below was used to determine the percentage fluorescence intensity:2 Fluorescenceintensity%=(photocatalyst−chloroalkaneMFITMR)−(photocatalystMFITMR)/(CA−NHBocMFITMR)−(photocatalystMFITMR)×100."}, "[8]": {"system": "reporter HEK293T cells expressing cytoplasmic HaloTag–SNAP-tag fusion protein", "experiment": "Modified chloroalkane penetration assay (CAPA), HEK293T", "format": "in vitro ADME", "details": "1 h pulse, flow cytometry, Extended Data Fig. 6b, representative data of two biological replicates", "method": "as §2"}, "[9]": {"details": "PBS pH 7.4, S3 1 mM, photocatalyst 0.1 mM, 450 nm 15 min, HPLC calibration curve, average of duplicate runs"}, "[10]": {"details": "PBS pH 7.4, diazirine 100 µM, photocatalyst 10 µM, 450 nm LED 15 min, average of duplicate runs"}}, "note": "Several values for one entry are separate records, joined by “and”; a condition that tells them apart may be missing. Identical values can stand only once."}
{"molecule": "diMeO-alloxazine [S2]", "values": [{"measurement": "Conversion of aryl azide S3", "setting": "[1]; [9]", "result": 94, "unit": "%"}, {"measurement": "λmax", "setting": "[2]; Supplementary Fig. 4", "result": 396, "unit": "nm"}]}
{"molecule": "Ir[dFCF3CO2Hppy]2[diolbpy] [3a]", "values": [{"measurement": "Conversion of aryl azide S3", "setting": "[1]; [9]", "result": 84, "unit": "%"}, {"measurement": "Cytotoxicity (in words)", "setting": "[3]", "result": "do not induce cytotoxicity"}, {"measurement": "Triplet energy (ET, E0–0,T1)", "setting": "[4]", "result": 60.1, "unit": "kcal/mol"}, {"measurement": "λmax", "setting": "[2]; Supplementary Fig. 4", "result": 380, "unit": "nm"}]}
{"molecule": "Cn1c2nc(=O)[nH]c(=O)c-2cc2ccccc21", "note": "[compound 4, deazaflavin]", "values": [{"measurement": "Conversion of aryl azide S3", "setting": "[1]; [9]", "result": 100, "unit": "%"}, {"measurement": "Conversion of diazirine 1", "setting": "[5]; 1:1 DMSO/H2O, 450 nm 15 min", "result": 85, "unit": "%"}]}
{"molecule": "O=c1c2ccccc2sc2ccccc12", "note": "[2a, thioxanthone]", "values": [{"measurement": "Conversion of aryl azide S3", "setting": "[1]; [9]", "result": 77, "unit": "%"}, {"measurement": "Conversion of diazirine 1", "setting": "[5]; [10]", "result": "71% and > 70%"}, {"measurement": "Triplet energy (ET, E0–0,T1)", "setting": "[4]", "result": 67.4, "unit": "kcal/mol"}, {"measurement": "λmax of first absorption band", "setting": "[2]; Fig. 1a, footnote a (footnote text not shown; a = 1:1 DMSO/H2O in Supplementary Fig. 4)", "result": 385, "unit": "nm"}, {"measurement": "λmax", "setting": "[2]; Supplementary Fig. 4", "result": 387, "unit": "nm"}]}
{"molecule": "N[C@@H](CCC(=O)N[C@@H](CS)C(=O)NCC(=O)O)C(=O)O", "note": "[GSH, glutathione]", "values": [{"measurement": "Quantum yield of electron transfer ΦeT to triplet state of 4", "setting": "[6]", "result": 73, "unit": "%"}]}
{"molecule": "MeO-thioxanthone [2b]", "values": [{"measurement": "Conversion of aryl azide S3", "setting": "[1]; [9]", "result": 61, "unit": "%"}, {"measurement": "Conversion of diazirine 1", "setting": "[5]; [10]", "result": "< 5", "unit": "%"}]}
{"molecule": "O=C1OC2(c3ccccc31)c1cc(Br)c(O)c(Br)c1Oc1c2cc(Br)c(O)c1Br", "note": "[EY, eosin Y]", "values": [{"measurement": "Cytotoxicity (in words)", "setting": "[3]", "result": "do not induce cytotoxicity"}]}
{"molecule": "Cn1c2nc(=O)n(CC(=O)NCCOCCOCCCCCCCl)c(=O)c-2cc2ccccc21", "note": "[compound 15]", "values": [{"measurement": "CP50 (treatment concentration where 50% of the HaloTags are labelled)", "setting": "[7]", "result": "198 ± 79.2", "unit": "nM"}, {"measurement": "CP50", "setting": "[8]", "result": "2,063 nM"}]}
{"molecule": "CC(C)(C)c1ccnc(-c2cc(C(C)(C)C)ccn2)c1.F[P-](F)(F)(F)(F)F.Fc1c[c-]c(-c2ccc(C(F)(F)F)cn2)c(F)c1.Fc1c[c-]c(-c2ccc(C(F)(F)F)cn2)c(F)c1.[Ir+3]", "note": "[3b, [Ir(dF(CF3)ppy)2(dtbbpy)]PF6]", "values": [{"measurement": "Triplet energy (ET, E0–0,T1)", "setting": "[4]", "result": 60.1, "unit": "kcal/mol"}, {"measurement": "λmax", "setting": "[2]; Supplementary Fig. 4, 1:1 DMSO/H2O", "result": 380, "unit": "nm"}, {"measurement": "Singlet oxygen quantum yield ΦΔ", "setting": "[2]; in acetonitrile", "result": 93, "unit": "%"}]}
{"molecule": "diMeO-deazaflavin [S1]", "values": [{"measurement": "Conversion of aryl azide S3", "setting": "[1]; [9]", "result": 79, "unit": "%"}, {"measurement": "Conversion of diazirine 1", "setting": "[5]; [10]", "result": "< 50% and 44%"}, {"measurement": "λmax", "setting": "[2]; Supplementary Fig. 4", "result": 418, "unit": "nm"}]}
{"molecule": "Riboflavin tetraacetate [RTA]", "values": [{"measurement": "Conversion of aryl azide S3", "setting": "[1]; pH 7.4", "result": 69, "unit": "%"}]}
